Measurements from patent US12528788B2, “Pesticidally active benzene- and azine-amide compounds” (SYNGENTA CROP PROTECTION AG, priority 2018, dated 2026).

Key:
Assay type in all cases: in vivo
Spodoptera littoralis [1] = experiment: Example B9: Spodoptera littoralis (Egyptian cotton leaf worm), cotton leaf discs sprayed, L1 larvae; settings: foliar, 72 h, application rate of 200 ppm, 3 days after infestation, read-out: control in at least one of the three categories (mortality, anti-feedant effect or growth inhibition)
Chilo suppressalis = experiment: Example B4: Chilo suppressalis (striped rice stemborer), artificial diet, L2 larvae; settings: 144 h, application rate of 200 ppm, 6 days after infestation, read-out: control in at least one of the three categories (mortality, anti-feedant effect or growth inhibition)
Description: Example B4: Chilo suppressalis (Striped Rice Stemborer)
24-well microtiter plates with artificial diet were treated with aqueous test solutions prepared from 10′000 ppm DMSO stock solutions by pipetting. After drying, the plates were infested with L2 larvae (6-8 per well). The samples were assessed for mortality, anti-feeding effect, and growth inhibition in comparison to untreated samples 6 days after infestation. Control of Chilo suppressalis by a test sample is given when at least one of the categories mortality, anti-feedant effect, and growth inhibition is higher than the untreated sample.

Myzus persicae [2] = experiment: Example B8: Myzus persicae (green peach aphid) intrinsic activity; settings: 120 h, test rate of 12 ppm, 5 days after infestation, sucrose solution
Text: Example B8: Myzus persicae (Green Peach Aphid). Intrinsic Activity
Test compounds prepared from 10′000 ppm DMSO stock solutions were applied by pipette into 24-well microtiter plates and mixed with sucrose solution. The plates were closed with a stretched Parafilm. A plastic stencil with 24 holes was placed onto the plate and infested pea seedlings were placed directly on the Parafilm. The infested plate was closed with a gel blotting paper and another plastic stencil and then turned upside down. The samples were assessed for mortality 5 days after infestation.

Diabrotica balteata = experiment: Example B1: Diabrotica balteata (corn root worm), maize sprouts sprayed, L2 larvae; settings: 96 h, application rate of 200 ppm, 4 days after infestation, L2 larvae on maize sprouts, read-out: control in at least one of the two categories (mortality or growth inhibition)
Description: Example B1: Diabrotica balteata (Corn Root Worm)
Maize sprouts placed onto an agar layer in 24-well microtiter plates were treated with aqueous test solutions prepared from 10′000 ppm DMSO stock solutions by spraying. After drying, the plates were infested with L2 larvae (6 to 10 per well). The samples were assessed for mortality and growth inhibition in comparison to untreated samples 4 days after infestation.

Plutella xylostella [3] = experiment: Example B5: Plutella xylostella (diamond back moth), artificial diet, 24-well, eggs; settings: 192 h, application rate of 200 ppm, 8 days after infestation, read-out: control in at least one of the two categories (mortality or growth inhibition)
Description: Example B5: Plutella xylostella (Diamond Back Moth)
24-well microtiter plates with artificial diet were treated with aqueous test solutions prepared from 10′000 ppm DMSO stock solutions by pipetting. After drying, Plutella eggs were pipetted through a plastic stencil onto a gel blotting paper and the plate was closed with it. The samples were assessed for mortality and growth inhibition in comparison to untreated samples 8 days after infestation.

Euschistus heros = experiment: Example B2: Euschistus heros (neotropical brown stink bug), soybean leaves sprayed, N2 nymphs; settings: 120 h, application rate of 200 ppm, 5 days after infestation, N2 nymphs on soybean leaves, read-out: control in at least one of the two categories (mortality or growth inhibition)
Description: Example B2: Euschistus heros (Neotropical Brown Stink Bug)
Soybean leaves on agar in 24-well microtiter plates were sprayed with aqueous test solutions prepared from 10′000 ppm DMSO stock solutions. After drying the leaves were infested with N2 nymphs. The samples were assessed for mortality and growth inhibition in comparison to untreated samples 5 days after infestation.

Plutella xylostella [4] = experiment: Example B14: Plutella xylostella (diamondback moth), 96-well artificial diet; settings: 216 h, application rate of 500 ppm, 9 days after infestation
Description: Example B14: Plutella xylostella (Diamondback Moth)
96-well microtiter plates containing artificial diet were treated with aqueous test solutions, prepared from 10′000 ppm DMSO stock solutions, by a liquid handling robot. After drying, eggs (˜30 per well) were infested onto a netted lid which was suspended above the diet. The eggs hatch and L1 larvae move down to the diet. The samples were assessed for mortality 9 days after infestation.

Spodoptera littoralis [5] = experiment: Example B10: Spodoptera littoralis (Egyptian cotton leaf worm), uptake by lettuce roots from agar; settings: 144 h, test rate of 12.5 ppm, 6 days after infestation, lettuce grown on treated agar, read-out: control in at least one of the three categories (mortality, anti-feeding, or growth inhibition)
Text: Example B10: Spodoptera littoralis (Egyptian Cotton Leaf Worm)
Test compounds were applied by pipette from 10′000 ppm DMSO stock solutions into 24-well plates and mixed with agar. Lettuce seeds were placed onto the agar and the multi well plate was closed by another plate which contained also agar. After 7 days the compound was absorbed by the roots and the lettuce grew into the lid plate. The lettuce leaves were then cut off into the lid plate. Spodoptera eggs were pipetted through a plastic stencil onto a humid gel blotting paper and the lid plate was closed with it. The samples were assessed for mortality, anti-feedant effect and growth inhibition in comparison to untreated samples 6 days after infestation.

Myzus persicae [6] = experiment: Example B7: Myzus persicae (green peach aphid) systemic activity; settings: 144 h, test rate of 24 ppm, 6 days after placing seedlings into test solutions, pea seedlings
Description: Example B7: Myzus persicae (Green Peach Aphid) Systemic Activity
Roots of pea seedlings infested with an aphid population of mixed ages were placed directly into aqueous test solutions prepared from 10′000 DMSO stock solutions. The samples were assessed for mortality 6 days after placing seedlings into test solutions.

Myzus persicae [7] = experiment: Example B13: Myzus persicae (green peach aphid), 96-well sucrose solution; settings: 120 h, application rate of 50 ppm, 5 days after infestation
Text: Example B13: Myzus persicae (Green Peach Aphid)
Test compounds prepared from 10′000 ppm DMSO stock solutions were applied by a liquid handling robot into 96-well microtiter plates and mixed with a sucrose solution. Parafilm was stretched over the 96-well microtiter plate and a plastic stencil with 96 holes was placed onto the plate. Aphids were sieved into the wells directly onto the Parafilm. The infested plates were closed with a gel blotting card and a second plastic stencil and then turned upside down. The samples were assessed for mortality 5 days after infestation.

Tetranychus urticae = experiment: Example B11: Tetranychus urticae (two-spotted spider mite) feeding/contact activity; settings: foliar, 192 h, application rate of 200 ppm, 8 days after infestation, bean leaf discs, mixed population (mobile stages)
Description: Example B11: Tetranychus urticae (Two-Spotted Spider Mite): Feeding/Contact Activity
Bean leaf discs on agar in 24-well microtiter plates were sprayed with aqueous test solutions prepared from 10′000 ppm DMSO stock solutions. After drying the leaf discs were infested with a mite population of mixed ages. The samples were assessed for mortality on mixed population (mobile stages) 8 days after infestation.

CC(NC(=O)c1cc(C(F)(F)F)cc(C(F)(F)F)c1)c1nccnc1-c1ncccn1 (stereo not shown) [Compound P12, N-[1-(3-pyrimidin-2-ylpyrazin-2-yl)ethyl]-3,5-bis(trifluoromethyl)benzamide]
≥ 80%: percent control (mortality, anti-feedant effect or growth inhibition) at 200 ppm (Spodoptera littoralis [1]) | percent control (mortality, anti-feedant effect or growth inhibition) at 200 ppm (Chilo suppressalis) | mortality at 12 ppm (Myzus persicae [2]) | percent control (mortality or growth inhibition) at 200 ppm (Diabrotica balteata) | percent control (mortality or growth inhibition) at 200 ppm (Plutella xylostella [3]) | percent control (mortality or growth inhibition) at 200 ppm (Euschistus heros)

CC(NC(=O)c1cc(OCC(F)F)cc(C(F)(F)F)c1)c1nccnc1-c1ncccn1 (stereo not shown) [Compound P14, 3-(2,2-difluoroethoxy)-N-[1-(3-pyrimidin-2-ylpyrazin-2-yl)ethyl]-5-(trifluoromethyl)benzamide]
≥ 80%: mortality at 500 ppm (Plutella xylostella [4]) | percent control (mortality, anti-feedant effect or growth inhibition) at 200 ppm (Spodoptera littoralis [1]) | percent control (mortality, anti-feedant effect or growth inhibition) at 200 ppm (Chilo suppressalis) | mortality at 12 ppm (Myzus persicae [2]) | percent control (mortality, anti-feeding or growth inhibition) at 12.5 ppm (Spodoptera littoralis [5]) | mortality at 24 ppm (Myzus persicae [6]) | mortality at 50 ppm (Myzus persicae [7]) | percent control (mortality or growth inhibition) at 200 ppm (Plutella xylostella [3]) | percent control (mortality or growth inhibition) at 200 ppm (Euschistus heros)

CC(NC(=O)c1cc(C(F)(F)F)nc(C(F)(F)F)c1)c1nccnc1-c1ncccn1 (stereo not shown) [Compound P15, N-[1-(3-pyrimidin-2-ylpyrazin-2-yl)ethyl]-2,6-bis(trifluoromethyl)pyridine-4-carboxamide]
≥ 80%: mortality at 500 ppm (Plutella xylostella [4]) | percent control (mortality, anti-feedant effect or growth inhibition) at 200 ppm (Spodoptera littoralis [1]) | percent control (mortality, anti-feedant effect or growth inhibition) at 200 ppm (Chilo suppressalis) | mortality at 12 ppm (Myzus persicae [2]) | percent control (mortality or growth inhibition) at 200 ppm (Diabrotica balteata) | mortality at 50 ppm (Myzus persicae [7]) | percent control (mortality or growth inhibition) at 200 ppm (Plutella xylostella [3]) | percent control (mortality or growth inhibition) at 200 ppm (Euschistus heros)

CC(NC(=O)c1cc(Cl)cc(OC(F)(F)F)c1)c1nccnc1-c1ncccn1 (stereo not shown) [Compound P16, 3-chloro-N-[1-(3-pyrimidin-2-ylpyrazin-2-yl)ethyl]-5-(trifluoromethoxy)benzamide]
≥ 80%: mortality at 500 ppm (Plutella xylostella [4]) | percent control (mortality, anti-feedant effect or growth inhibition) at 200 ppm (Spodoptera littoralis [1]) | percent control (mortality, anti-feedant effect or growth inhibition) at 200 ppm (Chilo suppressalis) | mortality at 12 ppm (Myzus persicae [2]) | percent control (mortality, anti-feeding or growth inhibition) at 12.5 ppm (Spodoptera littoralis [5]) | percent control (mortality or growth inhibition) at 200 ppm (Diabrotica balteata) | mortality at 50 ppm (Myzus persicae [7]) | percent control (mortality or growth inhibition) at 200 ppm (Plutella xylostella [3]) | percent control (mortality or growth inhibition) at 200 ppm (Euschistus heros)

CC(NC(=O)c1cc(OCC(F)(F)F)cc(C(F)(F)F)c1)c1nccnc1-c1ncccn1 (stereo not shown) [Compound P17, N-[1-(3-pyrimidin-2-ylpyrazin-2-yl)ethyl]-3-(2,2,2-trifluoroethoxy)-5-(trifluoromethyl)benzamide]
≥ 80%: mortality at 500 ppm (Plutella xylostella [4]) | percent control (mortality, anti-feedant effect or growth inhibition) at 200 ppm (Spodoptera littoralis [1]) | percent control (mortality, anti-feedant effect or growth inhibition) at 200 ppm (Chilo suppressalis) | mortality at 12 ppm (Myzus persicae [2]) | mortality at 50 ppm (Myzus persicae [7]) | percent control (mortality or growth inhibition) at 200 ppm (Plutella xylostella [3]) | percent control (mortality or growth inhibition) at 200 ppm (Euschistus heros)

CC(NC(=O)c1cc(C(F)(F)F)cc(C(F)(F)F)c1)c1nccnc1-c1ccc(F)cn1 (stereo not shown) [Compound P18, N-[1-[3-(5-fluoro-2-pyridyl)pyrazin-2-yl]ethyl]-3,5-bis(trifluoromethyl)benzamide]
≥ 80%: mortality at 500 ppm (Plutella xylostella [4]) | percent control (mortality, anti-feedant effect or growth inhibition) at 200 ppm (Spodoptera littoralis [1]) | percent control (mortality, anti-feedant effect or growth inhibition) at 200 ppm (Chilo suppressalis) | percent control (mortality or growth inhibition) at 200 ppm (Diabrotica balteata) | mortality at 50 ppm (Myzus persicae [7]) | mortality at 200 ppm (Tetranychus urticae)

CC(NC(=O)c1cc(Br)cc(C(F)(F)F)c1)c1nccnc1-c1ncccn1 (stereo not shown) [Compound P20, 3-bromo-N-[1-(3-pyrimidin-2-ylpyrazin-2-yl)ethyl]-5-(trifluoromethyl)benzamide]
≥ 80%: mortality at 500 ppm (Plutella xylostella [4]) | percent control (mortality, anti-feedant effect or growth inhibition) at 200 ppm (Spodoptera littoralis [1]) | percent control (mortality, anti-feedant effect or growth inhibition) at 200 ppm (Chilo suppressalis) | mortality at 12 ppm (Myzus persicae [2]) | percent control (mortality, anti-feeding or growth inhibition) at 12.5 ppm (Spodoptera littoralis [5]) | percent control (mortality or growth inhibition) at 200 ppm (Diabrotica balteata) | mortality at 50 ppm (Myzus persicae [7]) | percent control (mortality or growth inhibition) at 200 ppm (Plutella xylostella [3]) | percent control (mortality or growth inhibition) at 200 ppm (Euschistus heros)

CC(NC(=O)c1cc(Cl)cc(C(F)(F)F)c1)c1nccnc1-c1ncccn1 (stereo not shown) [Compound P21, 3-chloro-N-[1-(3-pyrimidin-2-ylpyrazin-2-yl)ethyl]-5-(trifluoromethyl)benzamide]
≥ 80%: mortality at 500 ppm (Plutella xylostella [4]) | percent control (mortality, anti-feedant effect or growth inhibition) at 200 ppm (Spodoptera littoralis [1]) | percent control (mortality, anti-feedant effect or growth inhibition) at 200 ppm (Chilo suppressalis) | mortality at 12 ppm (Myzus persicae [2]) | percent control (mortality, anti-feeding or growth inhibition) at 12.5 ppm (Spodoptera littoralis [5]) | percent control (mortality or growth inhibition) at 200 ppm (Diabrotica balteata) | mortality at 50 ppm (Myzus persicae [7]) | percent control (mortality or growth inhibition) at 200 ppm (Plutella xylostella [3]) | percent control (mortality or growth inhibition) at 200 ppm (Euschistus heros)

CC(NC(=O)c1cc(C(F)F)cc(C(F)(F)F)c1)c1nccnc1-c1ncccn1 (stereo not shown) [Compound P22, 3-(difluoromethyl)-N-[1-(3-pyrimidin-2-ylpyrazin-2-yl)ethyl]-5-(trifluoromethyl)benzamide]
≥ 80%: mortality at 500 ppm (Plutella xylostella [4]) | percent control (mortality, anti-feedant effect or growth inhibition) at 200 ppm (Spodoptera littoralis [1]) | percent control (mortality, anti-feedant effect or growth inhibition) at 200 ppm (Chilo suppressalis) | mortality at 12 ppm (Myzus persicae [2]) | percent control (mortality, anti-feeding or growth inhibition) at 12.5 ppm (Spodoptera littoralis [5]) | mortality at 24 ppm (Myzus persicae [6]) | percent control (mortality or growth inhibition) at 200 ppm (Diabrotica balteata) | mortality at 50 ppm (Myzus persicae [7]) | percent control (mortality or growth inhibition) at 200 ppm (Plutella xylostella [3]) | percent control (mortality or growth inhibition) at 200 ppm (Euschistus heros)
